Assay results from patent publication US5814612A, “Retinol derivatives and uses thereof” (priority 1992, dated 1998).

Tests used:
[1] = test system: thymocytes; experiment: Proliferation of Con A stimulated thymocytes in serum-free ITLB medium; type: cell-based, BALB/c mouse; details: 3×10^-6 M retinol, Con A 0.5 μg/ml
Description: Purified thymocytes (5×10^5 cells/well) were stimulated by TCR crosslinking with immobilized anti-CD3e antibody (FIG. 15A) or 0.4 μg/ml Con A (FIG. 15B) in serum-free ITLB medium. The indicated amounts of retinoids were added either once at the beginning of the experiment (marked as "1×") or every 12 hours thereafter (marked as "6×"). DNA synthesis was measured after 72 hours by tritiated thymidine uptake as described.
Thymuses of 3 to 6-week-old BALB/c mice were teased in serum-free RPMI medium supplemented with 1% BSA, 10^-6 M linoleic acid and antibiotics. […] Cell viability was evaluated by trypan blue dye exclusion. To determine the extent of depletion of accessory cells, samples were stained with FITC-conjugated anti-Fc receptor antibody and analyzed by flow cytometry on a FACScan instrument (Becton Dickinson). No FcR-bearing cells were detected by this procedure.
Cells were cultured in serum-free medium, referred to as ITLB, containing RPMI 1640 supplemented with 8×10^-7 M insulin (5 μg/ml), 7×10^-8 M transferrin (5 μg/ml), 2×10^-6 M linoleic acid, 2×10^-6 M delipidated BSA (0.12 mg/ml), 2 mM L-glutamine, 1 mM sodium pyruvate and antibiotics. […] The optimal concentration for stimulation of T cells was determined for each batch of anti-CD3 mAb and Con A. The optimal range of Con A was particularly narrow in serum-free medium (0.5-0.2 μg/ml) and varied with the cell density used. […]

[2] = test system: Raji; experiment: Retinol metabolism, Raji; type: in vitro ADME, human
Description: Legend: 2.5×10^6 cells were grown overnight in 5 ml RPMI/10% FBS. The FBS was preincubated at room temperature with 14.4 uCi [^3 H] retinol (NEN) for 4h. The cell pellet was washed twice with PBS. The retinoid were extracted according to MClean et al. 90 and separated on an analytical c18 reverse phase column according to FIG. 7. The DPM were determined using an on-line scintillation counter.

## CC1=C(/C=C/C(C)=C/C=C/C(C)=C/CO)C(C)(C)CCC1 [retinol, all-trans retinol]
[1]
  Con A stimulated thymocyte proliferation: growing exponentially
[2]; 4°
  Ester (% of taken up retinol): 0%
  P3 (% of taken up retinol): 0%
  Total cts.: 2.5 × 10^5 cts.
[2]; 37°
  Ester (% of taken up retinol): 14%
  P3 (% of taken up retinol): 3%
  Total cts.: 4.0 × 10^5 cts.
